The text below walks through data of patent publication EP0100673A2, “A method of enhancing neurofiber regrowth” (THE RESEARCH FOUNDATION OF STATE UNIVERSITY OF NEW YORK, priority 1982, dated 1984).

For assay [1], the system named is sciatic nerve. The assay is described as follows: Counts of myelinated axons 5.0 mm distal to repair by light microscopy. The assay is classed as in vivo, rat. To be noted: treated nerves vs. control nerve. As for the experimental part:
(§1) lwenty raty art anenthetizve with sel rompun (0.5 cc total volume). The right sciatic nerve is exposed and severed with microneuroscissors, and subsequently repaired microsurgically with 6-8 circumferential microsutures using 10-0 nylon. Immediately following surgery the treated animals receive 12 mg/kg Ac leupeptin in 5% DMSO (dimethylsulphoxide) as a bath on their sciatic nerve, 0.25 cc. total volume. Then the treated animals are injected intramuscularly in right hindlimb with 0.25 cc of a solution containing 12 mg/kg Ac leupeptin in 5% DMSO. Control animals receive the same surgical treatment, but the bath and intramuscular injection consist only of the solvent and 5% DMSO.
(§2) Thereafter, treated animals are injected twice weekly in the operated hindlimb with 12 mg/kg Ac leupeptin in 5% DMSO (0.25 cc total volume) for periods of 1 week, 1 month, two months, three months - and six months. Control animals are injected with 0.25 cc of 5% DMSO twice weekly in the operated hindlimb for the same time period.
(§3) Two treated and two control animals are assigned to each of the stated time periods.
(§4) A ten mm. portion of the repaired sciatic nerve is excised from each animal. This is fixed in 3.0% glutaraldehyde in 0.1 M sodium cacodylate, pH 7.3, overnight for electron microscopy. After post-fixation in 1.0% osmium tetroxide, ethanol dehydration and embedding in Polybed 812, both thick (1 micron) and thin (500 A°) transverse sections are cut on a ultramicrotome. Portions of the excised muscles receive similar preparation for electron microscopy.
(§5) Thick sections of the sciatic nerve are placed on microscope slots stained with toluidine blue and photographed at a constant magnification in the light microscope. Thin sections of both nerve and muscles are placed on 300 mesh copper grid calm, stained with uranyl acetate and lead citrate and photographed using a Hitachi HU-12 electron microscope.

For assay [2], the system named is sciatic nerve. Put plainly: Counts of myelinated axons 5.0 mm proximal to repair by light microscopy. The assay is classed as in vivo, rat. To be noted: all time periods, treated nerves compared to control. The method, then: as §1, §2, §3, §4, §5
Assay [3] concerns sciatic nerve. Put plainly: Counts of myelinated and unmyelinated axons 5.0 mm distal to repair by electron microscopy. The assay is classed as in vivo, rat. The note with it: ultrastructural data, up to and including 6 months of treatment. The method, then: as §1, §2, §3, §4, §5
For assay [4], the system named is neurofiber regrowth. Put plainly: Neurofiber regrowth after microsurgical neurorrhaphy (summary of tables I-V). The assay is classed as in vivo, mammals. The method, then: as §1, §2, §3
All animals are sacrified by an overdose of pentobarbital, 1.0 cc total volume. […] Myofiber diameters are determined by photographing hematoxylin and eosin sections at a constant magnification in the light microscope. […]

Assay [5] deals with neurofiber regrowth. The assay is described as follows: Effective dose based upon laboratory tests. In kind it is in vivo, mammals. To be noted: of mammalian weight, single or divided doses. From the text: The exact dose to be administered is dependent upon the age, weight and particular conditions of the individual involved.
For another assay, the target named is plasmin (Homo sapiens, UniProt P00747). To be noted: cited from earlier work.
Sequence of plasmin (P00747 97-810, species assumed): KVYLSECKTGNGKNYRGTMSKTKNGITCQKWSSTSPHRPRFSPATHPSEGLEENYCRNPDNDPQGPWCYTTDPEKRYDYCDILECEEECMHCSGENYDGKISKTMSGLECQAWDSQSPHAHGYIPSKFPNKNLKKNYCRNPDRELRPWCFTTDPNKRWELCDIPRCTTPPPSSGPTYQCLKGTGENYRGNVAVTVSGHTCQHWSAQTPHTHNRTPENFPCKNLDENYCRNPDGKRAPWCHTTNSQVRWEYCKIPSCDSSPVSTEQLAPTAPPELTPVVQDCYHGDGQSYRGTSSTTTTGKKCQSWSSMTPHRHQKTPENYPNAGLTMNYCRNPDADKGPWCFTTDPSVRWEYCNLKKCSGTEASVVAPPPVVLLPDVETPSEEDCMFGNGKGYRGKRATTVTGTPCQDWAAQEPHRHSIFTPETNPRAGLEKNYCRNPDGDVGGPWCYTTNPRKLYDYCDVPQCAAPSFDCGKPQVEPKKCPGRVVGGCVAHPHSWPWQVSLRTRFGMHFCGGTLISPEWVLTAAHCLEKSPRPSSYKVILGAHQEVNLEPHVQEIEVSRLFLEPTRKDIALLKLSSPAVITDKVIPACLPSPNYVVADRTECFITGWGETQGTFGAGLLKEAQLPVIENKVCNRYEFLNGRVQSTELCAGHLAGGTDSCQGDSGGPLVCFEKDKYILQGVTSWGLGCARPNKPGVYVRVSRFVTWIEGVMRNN
Another assay relates to kaleikrein. To be noted: cited from earlier work.
For a further assay, the system named is thrombokinase. The note with it: cited from earlier work.
In a further assay the target is T1, papain (Carica papaya, UniProt P00784).
T1 sequence (P00784 134-345): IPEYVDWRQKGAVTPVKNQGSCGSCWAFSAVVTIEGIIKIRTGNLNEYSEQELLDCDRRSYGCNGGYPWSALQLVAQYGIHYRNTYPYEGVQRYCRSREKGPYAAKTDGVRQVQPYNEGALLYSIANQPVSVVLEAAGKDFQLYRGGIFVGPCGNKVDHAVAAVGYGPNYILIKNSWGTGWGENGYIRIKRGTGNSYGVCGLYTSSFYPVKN
The note with it: cited from earlier work.

Another assay has as its system cathespin B. The note with it: in muscle, squid axoplasm and rat sciatic nerve; cited from earlier work.
A further assay relates to cathespin L. The note with it: in muscle, squid axoplasm and rat sciatic nerve; cited from earlier work.
Assay [6] deals with calcium activated neutral protease. To be noted: in muscle, squid axoplasm and rat sciatic nerve; cited from earlier work.
Assay [7] concerns chicken pectoralis muscle. To be noted: in vivo; cited from earlier work.
Assay [8] has as its system chicken and rat skeletal and fetal heart preparations. The note with it: cited from earlier work.

SMILES strings stand for the structures.

Usually ED50 stands for the dose at which the effect has come halfway, by size or by number of responders. A higher ED50 goes with weaker potency.

For `CC(=O)N[C@@H](CC(C)C)C(=O)N[C@@H](CC(C)C)C(=O)N[C@H](C=O)CCCNC(=N)N` [leupeptin], the “Wallerian degeneration distal to repair” value with sciatic nerve [1] was “do not undergo as severe a form of Wallerian degeneration as the control nerve”. Besides, in the assay with sciatic nerve [2], the “number of myelinated axons proximal to repair” value is “significantly higher number of myelinated axons when compared to control”. In addition, the “numbers of both myelinated and unmyelinated axons distal to the repair site” value in the assay on sciatic nerve [3] was “increased numbers of both myelinated and unmyelinated axons”. Also, the neurofiber regrowth result in the assay on neurofiber regrowth [4] is listed as “significantly enhances neurofiber regrowth”. In the assay on neurofiber regrowth [5], this molecule had an ED50 of 8 to 75 mg/kg. Moreover, the inhibition of plasmin entry at plasmin was “effective inhibitor”. Besides, in the assay on kaleikrein, the inhibition of kaleikrein entry is recorded as “effective inhibitor”. Besides, the inhibition of thrombokinase entry with thrombokinase is given as “effective inhibitor”. For the same molecule, the inhibition of papain result at papain is recorded as “effective inhibitor”. The “inhibition of cathespin B” value in the assay with cathespin B is listed as “inhibited”. Also, in the assay with cathespin L, the “inhibition of cathespin L” value is reported as “inhibited”. Moreover, in assay [6], the “inhibition of calcium activated neutral protease” value is “inhibited”. Further, the denervation induced atrophy result in assay [7] was “successfully used in vivo as an inhibitor of denervation induced atrophy”. Further, in assay [8], the protein degradation result was “decreased protein degradation” and the protein synthesis entry was “no effect on protein synthesis”.
